In US12565485B2, “Solid forms of 1-((S)-4-((R)-7-(6-amino-4-methyl-3-(trifluoromethyl)pyridin-2-yl)-6-chloro-8-fluoro-2-(((s)-1-methylpyrrolidin-2-yl)methoxy)quinazolin-4-yl)-3-methylpiperazin-1-yl)prop-2-en-1-one” (Genentech, Inc., priority 2022, dated 2026):

Tests used:
[1] = Form change before and after drying (XRPD); format: physicochemical
Protocol: The wet sample was vacuum dried at RT for 3 hrs. […] A solid was obtained with a yield of 62.2%. […] (peak temperature). Based on the integrals in NMR spectrum, the stoichiometric ratio of adipic acid:freebase was determined to be 1.06. A peak of EtOAc was observed. Around 0.07 molar EtOAc (0.8 wt %) was detected, which was consistent with TGA weight loss.
(peak), and one small endotherm at 158.8° C. […] Based on the integrals, the stoichiometric ratio of adipic acid:freebase was determined to be 1.65.
(peak temperature). Based on the integrals, the stoichiometric ratio of adipic acid:freebase was determined to be 1.06. Peak of THF was observed. Around 0.17 molar THF (1.9 wt %) was detected, which was consistent with TGA weight loss.
Compound B Form A was obtained from an acetone system and the sample was air dried at RT. […] (peak temperature) before the possible overlapped peak with peak temperature at 156.3° C. (FIG. 12). Based on the integrals, the stoichiometric ratio of fumaric acid:freebase was determined to be 1.03. A peak of acetone was observed and approximately 0.49 molar acetone (4.4 wt %) was detected. The HPLC purity of Compound B Form A was determined to be 93.56 area %. […] Around 0.39 molar acetone (3.5 wt %) was still detected. One endotherm at 58.7° C. and an overlapped peak with peak temperature at 157.1° C. were still observed on the sample obtained after heating. The first endotherm might be caused by re-adsorption of moisture. Since ˜3.5 wt % acetone was still detected from NMR, Compound B Form A is expected to be an acetone/H2O co-solvate.
Compound C Form A was obtained from EtOAc system and the sample was air dried at RT. […] HPLC purity of Compound C Form A was determined to be 95.18 area %.

Slow evaporation = format: physicochemical; conditions: Compound A, evaporation at RT
Protocol: Slow evaporation. Slow evaporation experiments were performed under 10 conditions. Briefly, about 15˜20 mg of freebase starting material (810935-01-A) was dissolved in 0.5˜1.0 mL of solvent in a 3-mL glass vial.
Slow evaporation Compound A. Slow evaporation experiments were performed under seven conditions.

C=CC(=O)N1CCN(c2nc(OC[C@@H]3CCCN3C)nc3c(F)c(-c4nc(N)cc(C)c4C(F)(F)F)c(Cl)cc23)[C@@H](C)C1 [Compound A Form A]
Form change before and after drying ([1]; air dried at RT): No form change was observed | Form change before and after drying ([1]; vacuum dried at RT for 3 hrs): No form change was observed | Result (Slow evaporation; 2-MeTHF): Gel | Result (Slow evaporation; Acetone): Gel | Result (Slow evaporation; DCM): Gel | Result (Slow evaporation; EtOH): Gel | Result (Slow evaporation; H2O): Clear solution | Result (Slow evaporation; MeOH): Gel | Result (Slow evaporation; THF): Gel
